Assay results as given in BigSolDB 2.1.

CC(=O)O[C@]1(C(C)=O)CC[C@H]2[C@@H]3C[C@H](C)C4=CC(=O)CC[C@]4(C)[C@H]3CC[C@@]21C
solubility (mole fraction)
Settings	278.15 K	283.15 K	288.15 K	293.15 K	298.15 K	303.15 K	308.15 K	313.15 K	318.15 K	323.15 K
in acetone	0.00469	0.00547	0.00618	0.00716	0.0083	0.00959	0.0112	0.0126	0.0144	0.0164
in acetonitrile	0.00283	0.00339	0.00397	0.00473	0.0056	0.00664	0.00785	0.0092	0.0109	0.013
in ethanol	0.000465	0.000655	0.000831	0.00106	0.00135	0.00168	0.00211	0.00267	0.0034	0.0043
in ethyl acetate	0.00327	0.00385	0.00446	0.00515	0.00584	0.00671	0.00773	0.00887	0.0102	0.0118
in isobutanol	0.000675	0.00085	0.00121	0.00157	0.00202	0.00269	0.00351	0.00463	0.00611	0.00789
in isobutyl acetate	0.00292	0.00334	0.0039	0.00443	0.005	0.00574	0.00654	0.00736	0.00849	0.00979
in isopropanol	0.000451	0.000651	0.000754	0.000945	0.00126	0.00166	0.00217	0.00281	0.00373	0.00477
in isopropyl acetate	0.00234	0.00273	0.00317	0.00367	0.00428	0.00497	0.00567	0.00657	0.00751	0.00866
in methanol	0.000588	0.000719	0.000887	0.0011	0.00135	0.00165	0.00202	0.0025	0.00309	0.00381
in methyl acetate	0.00351	0.00415	0.00479	0.00557	0.00649	0.00748	0.00866	0.00999	0.0115	0.0131
in n-butanol	0.000757	0.000978	0.00131	0.00168	0.0022	0.00277	0.00356	0.0046	0.0059	0.00753
in n-butyl acetate	0.00296	0.0035	0.00406	0.00462	0.00538	0.00622	0.00716	0.00829	0.00958	0.0111
in n-propanol	0.000683	0.00089	0.00114	0.00148	0.00188	0.00245	0.0031	0.00395	0.00508	0.00648
in n-propyl acetate	0.0032	0.00384	0.00446	0.00517	0.0059	0.00682	0.00791	0.00917	0.0105	0.012
